Assay results from patent publication US20050049309A1, “Regulation of HIF protein levels via deubiquitination pathway” (priority 2003, published 2005).
Where a SMILES comes first, the peptide text is derived from it. [ ]: non-standard residue; d: D form. The star is where a group is joined. Nva = CCC[C@H](N)C(=O)O; Cbz = O=C(OCc1ccccc1)*

What was measured:
HIF-1α protein = details: recent studies (literature); cited from earlier work
hypoxic cells = details: cited from earlier work
[1] = cited from earlier work
HIF-1α = assay type: cell-based, human
[2] = system: deubiquitinase enzyme activity (HT-29 cell lysate) on polyubiquitinated HIF-1α; assay type: biochemical, human

C=CCNC1=C2C[C@@H](C)C[C@H](OC)[C@H](O)[C@@H](C)/C=C(\C)[C@H](OC(N)=O)[C@@H](OC)/C=C\C=C(/C)C(=O)NC(=CC1=O)C2=O [17-AAG, 17-allylamino-17-desmethoxygeldanamycin]
HIF-1α protein in cell-lines lacking pVHL (HIF-1α protein): promote the loss of HIF-1α protein

O=C(O)CCCc1ccc(N(CCCl)OCCCl)cc1 [CHL-HD]
Toxicity with reducing enzymes under hypoxia (hypoxic cells): greater toxicity
In vivo toxicity [1]: minimal in vivo toxicity

C[C@@H]1C[C@@H]([C@H](O)CC2CC(=O)NC(=O)C2)C(=O)[C@@H](C)C1 [Cycloheximide, cycloheximide]
Ubiquitination of HIF-1α with proteasome inhibited (HIF-1α): no affect

CCC[C@@H](C=O)NC(=O)[C@H](CC(C)C)NC(=O)[C@H](CC(C)C)NC(=O)OCc1ccccc1 [LLnV, N-carbobenzoxy-Leu-Leu-norvalinal] (Cbz-Leu-Leu-[Nva]-aldehyde)
Deubiquitination of HIF-1α in vitro [2]: did not affect
